Measurements taken from PMC7693160 (Pharmaceutics, 2020).
Where “and” joins values, the source holds several entries; their conditions need not be identical. Equal entries are not always repeated. Where two headings read alike, the source gives them in different places. Marks after values point to notes of the source that are not given here.

Columns and labels:
[1] = Model-based analysis of in vitro dissolution data (DLM, SIVA); format: physicochemical
Description: The dissolution rate of spherical particles under sink and non-sink conditions within SIVA is described by an extension of the diffusion layer model (DLM) developed by Wang and Flanagan (Equation (3)). (3) DRt=-[…] where DRt is the dissolution rate at time t, N is the number of particles in a given particle size bin, and SDLM is a lumped correction scalar without regard to the mechanistic origin of the correction to the DLM. The SDLM estimates obtained with SIVA can be applied to the Simcyp PBPK simulator to reflect differences between media or formulations by simulating the respective in vivo dissolution; Deff is the effective diffusion coefficient; […] represent the thickness of the hydrodynamic boundary layer and the particle radius at time t, respectively; Ssurfacet corresponds to the saturation solubility at the particle surface (which may be different to the bulk fluid solubility, as discussed below); and Cbulkt is the concentration of dissolved drug in bulk solution at time t. The […] calculated by the fluid dynamics sub-model, which enables the hydrodynamic conditions to be described according to local conditions and stirring rate. Fluid dynamics-based […] recommended option for describing the hydrodynamics, as it permits a more rational translation of estimated parameters such as the SDLM to in vivo conditions, in which the hydrodynamics are usually quite different to in vitro experiments. […] Since the in vitro dissolution media have a somewhat […] buffer capacity than the intestinal fluids, the self-buffering effect at the solid surface can be underestimated. For this reason, the surface pH was calculated and directly input into SIVA. The calculation of the surface pH is based on the model first proposed by Mooney et al., which assumes that dissolution is the result of both chemical reaction between the conjugate base of the buffer species and the hydrogen cations released from the dissolving drug (in this case FLU) at the liquid-solid interface and the diffusion of the dissolved particles to the bulk. This model is very similar to the quasi-equilibrium model published by Ozturk et al., a derivative of which is implemented in SIVA as the default option for surface pH calculations. By fitting the DLM model to the observed dissolution data, we obtained SDLM estimates for each dissolution and two-stage test. In the case of two-stage testing, different SDLM values were obtained for the gastric and intestinal compartments, accounting for the changes in the respective in vitro conditions. Under fasted state intestinal conditions, FLU is freely soluble and therefore dissolution is not expected to be solubility limited. In that case, disintegration of the solid dosage form in the intestinal dissolution medium might be the rate-limiting step for the in vitro dissolution rate, especially in single dissolution experiments where the dosage form is directly exposed to the intestinal medium without any pre-treatment in a gastric medium. […] For the two-stage test experiments, the option was kept deactivated since disintegration in the stomach is already accounted for by the dissolution in the gastric medium. Both gastric and intestinal phases of the two-stage results were modelled simultaneously using the serial dilution model, which can account for more than one in vitro dissolution condition in the same experiment. Estimation of the relevant parameters was performed using the Nelder-Mead algorithm and equal weighting was applied. […]

[2] = design: method as in earlier work; settings: 55 (55, 60); cited from earlier work
[3] = tested on: UGT2B7; settings: Recombinant UGT; cited from earlier work
[4] = tested on: tooth pulp-evoked potentials (TPEP) amplitude and subjective pain intensity rating; settings: cited from earlier work; for Rmax obs: 100 mg tablet; for TRmax obs: median
[5] = tested on: CYP2C9 1*/1*; settings: Recombinant CYP (fu,mic = 1), cited from earlier work
[6] = tested on: CYP2C9 2*/2*; settings: Recombinant CYP (fu,mic = 1), cited from earlier work
[7] = tested on: CYP2C9; settings: cited from earlier work
[8] = FLU po 50 mg s.d. + fluconazole po 200 mg q.d. x7, interval 2 h, CYP2C9 1*/1*, median
[9] = FLU po 50 mg s.d. + fluconazole po 200 mg q.d. x7, interval 2 h, CYP2C9 1*/3*
[10] = FLU po 50 mg s.d. + fluconazole po 200 mg q.d. x7, interval 2 h, CYP2C9 3*/3*, individual values (n=2)
[11] = FLU po 50 mg s.d. + fluconazole po 400 mg q.d. x7, interval 2 h, CYP2C9 1*/1*
[12] = FLU po 50 mg s.d. + fluconazole po 400 mg q.d. x7, interval 2 h, CYP2C9 1*/3*
[13] = FLU po 50 mg s.d. + fluconazole po 400 mg q.d. x7, interval 2 h, CYP2C9 3*/3*, individual values (n=2)
[14] = FLU po 50 mg s.d. + fluconazole po 400 mg q.d. x7, interval 2 h
[15] = FLU po 50 mg s.d. + fluconazole po 400 mg s.d., interval 2 h, ref 47
[16] = FLU po 50 mg s.d. + fluconazole po 400 mg s.d., interval 2 h, ref 48
[17] = FLU po 50 mg s.d. + rifampicin po 600 mg q.d. x5, interval 0 h, ref Daali et al.
[18] = FLU po 100 mg s.d. + fluconazole po 200 mg b.i.d. x2, interval 0.5 h, geometric mean, ref 44
[19] = FLU po 100 mg s.d. + fluconazole po 200 mg b.i.d. x2, interval 0.5 h, geometric mean, ref 45
[20] = FLU po 100 mg s.d. + fluconazole po 200 mg b.i.d. x2, interval 0.5 h, ref 46

CC(C(=O)O)c1ccc(-c2ccccc2)c(F)c1 (stereo not drawn) [flurbiprofen]
SDLM (95% CI) ([1]; FaSSGF Level III): 0.0218 (0.0161–0.0274) | SDLM (95% CI) ([1]; FaSSIF V3 Level I, listed as API): 0.00185 | SDLM (95% CI) ([1]; FaSSIF V3 Level I, listed as API Powder): 0.00185 (0.001–0.00312) | SDLM (95% CI) ([1]; FaSSIF V3 Level II): 0.0965 (0.0544–0.139) | SDLM (95% CI) ([1]; Ph. Eur. Phosphate Buffer): 0.00542 (0.00468–0.00617) | logPo:w [2]: 3.99 | Km [3]: 50.2 µM | UGT2B7-Vmax [3]: 119.7 pmol/min/mg protein | Rmax obs ([4]; Pain intensity reduction): 53.1% | AUCE obs ([4]; Pain intensity reduction): 224.2 %·h | TRmax obs ([4]; Pain intensity reduction): 4.00 h | Rmax obs ([4]; TPEP amplitude reduction): 47.3% | AUCE obs ([4]; TPEP amplitude reduction): 224.2 %·h | TRmax obs ([4]; TPEP amplitude reduction): 4.00 h | CYP2C9 1*/1*-Vmax [5]: 15.79 pmol/min/pmol CYP | Km ([5]; read-out: CYP2C9 1*/1*-Km): 8.76 µM | CYP2C9 2*/2*-Vmax [6]: 10.04 pmol/min/pmol CYP | Km ([6]; read-out: CYP2C9 2*/2*-Km): 10.4 µM | DDI AUC Ratio obs [7, 8]: 2.02 ^a | DDI CL/F Ratio obs [7, 8]: 0.5 ^a | DDI Cmax Ratio obs [7, 8]: 1.03 ^a | DDI AUC Ratio obs [7, 9]: 1.8 | DDI CL/F Ratio obs [7, 9]: 0.56 | DDI Cmax Ratio obs [7, 9]: 0.87 | DDI AUC Ratio obs [7, 10]: 1.58 and 1.28 | DDI CL/F Ratio obs [7, 10]: 0.75 and 0.66 | DDI Cmax Ratio obs [7, 10]: 1.08 and 0.91 | DDI AUC Ratio obs [7, 11]: 3.03 | DDI CL/F Ratio obs [7, 11]: 0.31 | DDI Cmax Ratio obs [7, 11]: 0.99 | DDI AUC Ratio obs [7, 12]: 2.48 | DDI CL/F Ratio obs [7, 12]: 0.44 | DDI Cmax Ratio obs [7, 12]: 0.94 | DDI AUC Ratio obs [7, 13]: 1.39 and 1.12 | DDI CL/F Ratio obs [7, 13]: 1.00 and 0.66 | DDI Cmax Ratio obs [7, 13]: 0.54 and 0.90 | DDI AUC Ratio obs [7, 14]: 2.81 | DDI CL/F Ratio obs [7, 14]: 0.35 | DDI Cmax Ratio obs [7, 14]: 1.37 | DDI AUC Ratio obs [7, 15]: 2.16 | DDI CL/F Ratio obs [7, 15]: 0.46 | DDI Cmax Ratio obs [7, 15]: 1.24 | DDI AUC Ratio obs [7, 16]: 1.21 | DDI CL/F Ratio obs [7, 16]: 0.67 | DDI Cmax Ratio obs [7, 16]: 1.14 | DDI AUC Ratio obs [7, 17]: 0.56 | DDI CL/F Ratio obs [7, 17]: 1.85 | DDI Cmax Ratio obs [7, 17]: 0.71 | DDI AUC Ratio obs [7, 18]: 1.97 ^b | DDI Cmax Ratio obs [7, 18]: 1.47 ^b | DDI AUC Ratio obs [7, 19]: 1.71 ^b | DDI Cmax Ratio obs [7, 19]: 1.16 ^b | DDI CL/F Ratio obs ([7]; FLU po 100 mg s.d. + fluconazole po 200 mg b.i.d. x2, interval 0.5 h, ref 44): 0.5 | DDI CL/F Ratio obs ([7]; FLU po 100 mg s.d. + fluconazole po 200 mg b.i.d. x2, interval 0.5 h, ref 45): 0.57 | DDI AUC Ratio obs [7, 20]: 1.81 | DDI CL/F Ratio obs [7, 20]: 0.55 | DDI Cmax Ratio obs [7, 20]: 1.23
